These results are taken from PMC10882719 (Frontiers in Neuroscience, 2024).

The target in data set [1] is T1, NE uptake (NET), rat brain synaptosomes (Rattus norvegicus, UniProt Q63380).
T1 construct: Rat brain synaptosomes were isolated from Sprague Dawley rats (200-250 g); from tissue; host or cells: rat brain synaptosomes (Sprague Dawley)
Kind of data set: Uptake inhibition assay, [3H]NE, rat brain synaptosomes. The class given is biochemical.

Data set [2] deals with immobility in the forced swim test. Also on record: method as in Warner-Schmidt et al., 2022. Conditions: rats, ref Warner-Schmidt et al., 2022, cited from earlier work.
The target of data set [3] is T2, DA release (DAT), rat brain synaptosomes (Rattus norvegicus, UniProt P23977).
T2 construct: Rat brain synaptosomes were isolated from Sprague Dawley rats (200-250 g); from tissue; host or cells: rat brain synaptosomes (Sprague Dawley)
T2 sequence (P23977 whole entry): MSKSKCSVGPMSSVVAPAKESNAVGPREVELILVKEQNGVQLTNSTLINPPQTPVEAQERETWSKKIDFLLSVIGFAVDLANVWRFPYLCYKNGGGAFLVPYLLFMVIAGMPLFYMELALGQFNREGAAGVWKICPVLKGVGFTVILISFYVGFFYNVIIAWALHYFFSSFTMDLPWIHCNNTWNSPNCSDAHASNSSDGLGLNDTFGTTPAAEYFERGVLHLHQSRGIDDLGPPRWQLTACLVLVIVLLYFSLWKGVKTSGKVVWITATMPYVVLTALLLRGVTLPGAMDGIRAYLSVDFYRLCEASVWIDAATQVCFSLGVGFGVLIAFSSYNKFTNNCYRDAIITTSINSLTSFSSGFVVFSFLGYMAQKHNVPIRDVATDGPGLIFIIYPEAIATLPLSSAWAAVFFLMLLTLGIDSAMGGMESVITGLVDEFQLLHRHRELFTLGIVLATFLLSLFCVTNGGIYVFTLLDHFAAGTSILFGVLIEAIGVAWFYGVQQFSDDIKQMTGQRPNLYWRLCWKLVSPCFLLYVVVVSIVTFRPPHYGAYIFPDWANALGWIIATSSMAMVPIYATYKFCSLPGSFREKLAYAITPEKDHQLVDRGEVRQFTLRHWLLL
Kind of data set: Release assay, [3H]DA, superfused rat brain synaptosomes. The format is biochemical. As to the method: (§1) Test compounds and synaptosomes were prepared as described for uptake inhibition assays. Synaptosomes treated with [^3H] 5-HT, [^3H] DA or [^3H] NE were loaded onto filter chambers containing GF/C filters and placed in a superfusion system. Oxygenated Krebs buffer was perfused through the chambers at a rate of 1.5 mL/min at 35°C using either an 8-channel or a 12-channel peristaltic pump. Trapped air bubbles were removed from the filters prior to collecting fractions to ensure an even flow over the synaptosomal bed. After a superfusion period of 45 min, 2 basal fractions were collected followed by 6 fractions following the addition of the test drug. […] After the addition of scintillation cocktail, radioactivity was counted using a Wallac® TriLux 1,450 MicroBeta counter. […] Scintillation cocktail was added, and the filters counted to determine residual radioactivity. Drug-evoked release of neurotransmitter was calculated by subtracting the average of the two basal fractions (collected prior to the drug addition), from the four fractions collected in the presence of drug. The drug-evoked release was then expressed as a percentage of the basal release. Potassium-evoked release was calculated by subtracting the average of two fractions collected prior to the addition of high KCl buffer from that in the two fractions following addition of high KCl buffer. […]

Data set [4] deals with T3, serotonin (5HT) transporter (SERT) (Rattus norvegicus, UniProt P31652).
T3 construct: Rat brains were dissected and tissue was homogenized in cold lysis buffer; from tissue; host or cells: rat brain membrane preparation
T3 sequence (P31652 whole entry): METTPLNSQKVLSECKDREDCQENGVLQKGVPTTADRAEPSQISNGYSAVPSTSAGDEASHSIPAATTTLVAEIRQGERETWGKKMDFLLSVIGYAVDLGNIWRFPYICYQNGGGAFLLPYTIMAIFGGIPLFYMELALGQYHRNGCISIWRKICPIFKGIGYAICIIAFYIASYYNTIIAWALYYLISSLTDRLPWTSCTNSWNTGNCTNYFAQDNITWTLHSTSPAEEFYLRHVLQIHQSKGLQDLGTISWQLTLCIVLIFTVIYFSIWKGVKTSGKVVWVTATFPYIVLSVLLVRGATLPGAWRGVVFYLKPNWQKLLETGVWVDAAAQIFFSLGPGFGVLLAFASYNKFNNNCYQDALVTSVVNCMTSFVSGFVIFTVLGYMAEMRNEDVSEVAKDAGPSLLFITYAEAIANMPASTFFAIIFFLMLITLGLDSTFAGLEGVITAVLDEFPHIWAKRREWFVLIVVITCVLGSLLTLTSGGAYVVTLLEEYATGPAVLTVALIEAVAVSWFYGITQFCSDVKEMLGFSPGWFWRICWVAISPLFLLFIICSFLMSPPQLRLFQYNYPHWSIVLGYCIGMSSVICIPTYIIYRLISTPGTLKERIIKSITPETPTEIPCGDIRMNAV
Kind of data set: Competitive radioligand binding, [3H]citalopram, rat brain membranes. As to the method:
All studies were performed at Gifford Bioscience, Ltd. (Birmingham, UK) according to standard protocols.
Radioligands used were: [^3H] Citalopram (PerkinElmer NET1039250UC); [^3H] Nisoxetine (PerkinElmer NET1084250UC); [^3H] WIN35428 (PerkinElmer NET1033250UC). Nonspecific compounds used were Citalopram (Tocris Bioscience 1,427); JHW007 (Tocris Bioscience 4,351); Nomifensine (Abcam ab146004). […] Rat brains were dissected and tissue was homogenized in cold lysis buffer, centrifuged at 100xg for 2 min and the supernatant was placed in a fresh tube. Supernatant was centrifuged at 13,000 × g for 10 min at 4°C to re-pellet the cell lysate. The pellet was resuspended in fresh wash buffer (50 mM Tris–HCl; 5 mM MgCl2; 5 mM EDTA) and centrifuged a third time. The pellet was then resuspended in wash buffer containing 10% sucrose as a cryoprotectant, divided into aliquots (0.3 mL) and stored at −80°C. A sample of the homogenate was analyzed for protein content using the Sigma® BCA assay. On the day of the assay, the membrane preparation was thawed and the pellet resuspended in final assay buffer. […] Filters were then dried under a warm air stream, sealed in polyethylene, scintillation cocktail added, and the radioactivity counted in a Wallac® TriLux 1,450 MicroBeta counter. […] Ki was subsequently calculated using the Cheng-Prusoff equation.

In data set [5] the target is T4, 5HT release (SERT), rat brain synaptosomes (Rattus norvegicus, UniProt P31652).
T4 construct: Rat brain synaptosomes were isolated from Sprague Dawley rats (200-250 g); from tissue; host or cells: rat brain synaptosomes (Sprague Dawley)
T4 sequence (P31652 whole entry): as above
Kind of data set: Release assay, [3H]5-HT, superfused rat brain synaptosomes. The format is biochemical. As to the method: as §1

The next data set concerns the target T5, 5HT5A (Homo sapiens, UniProt P47898).
T5 construct: β-galactosidase enzyme fragment (enzyme fragment complementation reporter); host or cells: PathHunter cell lines
Kind of data set: GPCRmax screen, agonist mode, 5HT5A. The format is cell-based. Conditions: for % Agonist Activity: HTR5A. As for the experimental part: Studies were performed at Eurofins DiscoverX Corporation (Fremont, CA) using the GPCRmax assay according to the manufacturer’s protocols. […] Activity greater than 30% typically indicates agonist activity and inhibition greater than 50% indicates antagonist activity. This assay uses enzyme fragment complementation with […] as the functional reporter. When a GPCR is activated, […] is recruited and the reporter is detectable. GPCRmax offers a high-throughput screen of 168 GPCRs for agonist or antagonist activity. Briefly, PathHunter cell lines were propagated, seeded into 384-well microplates and incubated at 37°C. […] Microplates were read following signal generation with a PerkinElmer Envision™ instrument for chemiluminescent signal detection. Compound activity was analyzed using CBIS data analysis suite (ChemInnovation, CA) to determine raw values (RLU). For agonist mode assay, percentage activity was calculated using the following formula: % Activity =100% × (mean RLU of test sample - mean RLU of vehicle control) / (mean MAX control ligand - mean RLU of vehicle control). For antagonist mode assay, percentage inhibition was calculated using the following formula: % Inhibition =100% × (1 - (mean RLU of test sample - mean RLU of vehicle control) / (mean RLU of EC80 control - mean RLU of vehicle control)).

Data set [6] concerns the target T6, DA uptake (DAT), rat brain synaptosomes (Rattus norvegicus, UniProt P23977).
T6 construct: Rat brain synaptosomes were isolated from Sprague Dawley rats (200-250 g); from tissue; host or cells: rat brain synaptosomes (Sprague Dawley)
Nature of the data set: Uptake inhibition assay, [3H]DA, rat brain synaptosomes. The format is biochemical.

Data set [7] has as its target T7, 5HT reuptake (SERT), rat brain synaptosomes (Rattus norvegicus, UniProt P31652).
T7 construct: Rat brain synaptosomes were isolated from Sprague Dawley rats (200-250 g); from tissue; host or cells: rat brain synaptosomes (Sprague Dawley)
Kind of data set: Uptake inhibition assay, [3H]5-HT, rat brain synaptosomes. The class given is biochemical.

The next data set relates to PTSD patients (CAPS-5). The settings on record: open-label, 14 PTSD patients; ref Jones et al., 2023; cited from earlier work.
Data set [8] deals with T8, NE release (NET), rat brain synaptosomes (Rattus norvegicus, UniProt Q63380).
T8 construct: Rat brain synaptosomes were isolated from Sprague Dawley rats (200-250 g); from tissue; host or cells: rat brain synaptosomes (Sprague Dawley)
T8 sequence (Q63380 1-617): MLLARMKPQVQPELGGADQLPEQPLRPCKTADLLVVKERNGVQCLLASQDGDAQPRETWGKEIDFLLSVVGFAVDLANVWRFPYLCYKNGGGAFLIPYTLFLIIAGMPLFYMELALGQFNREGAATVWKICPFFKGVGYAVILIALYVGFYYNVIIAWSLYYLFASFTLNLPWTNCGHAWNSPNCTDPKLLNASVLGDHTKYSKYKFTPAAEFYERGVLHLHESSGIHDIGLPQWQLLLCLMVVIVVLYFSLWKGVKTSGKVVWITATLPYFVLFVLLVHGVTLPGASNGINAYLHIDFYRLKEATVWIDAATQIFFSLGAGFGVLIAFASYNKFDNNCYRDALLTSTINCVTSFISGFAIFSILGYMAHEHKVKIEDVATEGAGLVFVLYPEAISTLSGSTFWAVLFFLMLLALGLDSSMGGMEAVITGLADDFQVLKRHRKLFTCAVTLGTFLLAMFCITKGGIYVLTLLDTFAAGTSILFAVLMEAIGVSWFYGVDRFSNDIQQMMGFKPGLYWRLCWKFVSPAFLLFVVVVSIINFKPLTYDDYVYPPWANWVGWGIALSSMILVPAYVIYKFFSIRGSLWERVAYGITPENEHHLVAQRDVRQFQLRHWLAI
Kind of data set: Release assay, [3H]NE, superfused rat brain synaptosomes. The class given is biochemical. As for the experimental part: as §1

Read-outs that look alike come from different tables or passages of the source.

T5 sequence (P47898 whole entry, the tested form may be a part): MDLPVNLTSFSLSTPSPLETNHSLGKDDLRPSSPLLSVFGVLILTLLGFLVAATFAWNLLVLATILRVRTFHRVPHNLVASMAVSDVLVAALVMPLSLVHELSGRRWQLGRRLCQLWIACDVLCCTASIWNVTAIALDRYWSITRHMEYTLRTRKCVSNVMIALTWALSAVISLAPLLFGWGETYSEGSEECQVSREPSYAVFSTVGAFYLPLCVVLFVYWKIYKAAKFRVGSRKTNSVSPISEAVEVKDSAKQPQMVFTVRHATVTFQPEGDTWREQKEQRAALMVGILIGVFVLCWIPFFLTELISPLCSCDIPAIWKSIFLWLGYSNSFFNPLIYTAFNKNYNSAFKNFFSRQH
T7 sequence (P31652 whole entry): as the sequence (P31652 whole entry) above
T6 sequence (P23977 whole entry): as the sequence (P23977 whole entry) above
T1 sequence (Q63380 1-617): as the sequence (Q63380 1-617) above

Broadly, the IC50 is the concentration at which inhibition is half-maximal. Read a low IC50 as greater potency in that assay. By EC50 is commonly meant the concentration needed to bring the measured effect to its halfway point. The low end stands for a more potent agent, the high end for a less potent agent. By Ki is commonly meant the dissociation constant of the complex between target and ligand, obtained from inhibition or displacement. In the case of `CNC(C)C(=O)c1ccc2c(c1)OCO2` (stereo not drawn) [methylone], the IC50 in [1] stood at 130 nM; in data set [6], 2300 nM; in data set [7], 430 nM. Moreover, the “Reduction in immobility in the forced swim test” value in [2] (30 min after a single human equivalent dose of 100–150 mg) was 95–98%. The “Duration of reduction in immobility post-dose” value in data set [2] (single dose) is on record as “at least 72 h”. For the same compound, the EC50 in [3] was determined as 4790 nM; in [5] it was 620 nM; in [8], 330 nM. Also, the “Amount of DA released compared to MDMA” value in data set [3] (rat brain synaptosomes, Figure 1C) is “Less DA was released”. The compound further registered a Ki in data set [4] of 4150 nM. Besides, the “% agonist activity, 5HT5A (greatest activity detected)” value on 5HT5A (1 or 10 μM, threshold 30% activity) was 13.9%. Moreover, the “% Agonist Activity” value at 5HT5A (1 uM) worked out at 13.6%; on 5HT5A (10 uM), 13.9%. For the same compound, in the data set on PTSD patients (CAPS-5), the Adverse events result was “no significant adverse events”. For the same compound, the “Reduction in CAPS-5” value in the data set on PTSD patients (CAPS-5) was 36.2 point.

With `CNC(C)Cc1ccc2c(c1)OCO2` (stereo not drawn) [MDMA, 3,4-Methylenedioxy methamphetamine, reference compound], the Ki in [4] (read-out: Ki, SERT, competitive radioligand binding, rat brain membranes, Cheng-Prusoff) worked out at 2620 nM. Besides, the entries for the “% Agonist Activity” value at 5HT5A (1 uM) and at 5HT5A (10 uM) were 7.2% and 0.8%, respectively.
